Source: ChEMBL document CHEMBL1124153, “Synthesis and renin inhibitory activity of angiotensinogen analogues having dehydrostatine, Leu psi [CH2S]Val, or Leu psi [CH2SO]Val at the P1-P1' cleavage site” (J Med Chem, 1988)

Experiments:
Renin (Homo sapiens) = biological target: T1, Renin (Homo sapiens) (UniProt P00797); assay: Inhibitory potency against renin relative to H-Pro-His-Pro-Phe-His-Phe-Phe-Val-Tyr-D-Lys-OH peptide
T1 sequence (whole entry): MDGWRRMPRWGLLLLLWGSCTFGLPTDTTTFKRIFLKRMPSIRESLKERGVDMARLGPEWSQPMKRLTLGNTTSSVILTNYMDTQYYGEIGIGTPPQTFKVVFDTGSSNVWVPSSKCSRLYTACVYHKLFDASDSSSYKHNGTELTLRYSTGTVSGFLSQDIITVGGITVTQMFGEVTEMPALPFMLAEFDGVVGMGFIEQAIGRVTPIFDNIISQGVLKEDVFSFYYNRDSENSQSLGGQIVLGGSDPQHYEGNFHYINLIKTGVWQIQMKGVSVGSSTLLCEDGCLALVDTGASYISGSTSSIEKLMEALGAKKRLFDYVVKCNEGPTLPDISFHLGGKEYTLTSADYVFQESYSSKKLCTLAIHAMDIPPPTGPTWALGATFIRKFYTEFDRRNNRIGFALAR

Renin = biological target: T2, Renin (Homo sapiens, UniProt P00797); assay: In vitro inhibitory activity against renin from lyophilized human plasma; assay type: cell-free
T2 sequence (P00797 whole entry): T1 sequence (whole entry)

Row | Compound | Relative potency (Renin (Homo sapiens)) | IC50 (Renin) [µM]
1 | CC(C)[C@H](NC(=O)[C@H](Cc1ccccc1)NC(=O)[C@H](Cc1ccccc1)NC(=O)[C@H](Cc1cnc[nH]1)NC(=O)[C@H](Cc1ccccc1)NC(=O)[C@H]1CCCN1C(=O)[C@H](Cc1cnc[nH]1)NC(=O)[C@H]1CCCN1)C(=O)N[C@@H](Cc1ccc(O)cc1)C(=O)N[C@H](CCCCN)C(=O)O |  | 10
2 | CC[C@@H](C)[C@H](NC(=O)[C@@H](SC[C@H](CC(C)C)NC(=O)[C@H](Cc1c[nH]cn1)NC(=O)[C@H](Cc1ccccc1)NC(=O)[C@H]1CCCN1C(=O)[C@H](Cc1c[nH]cn1)NC(=O)[C@H]1CCCN1)C(C)C)C(=O)N[C@@H](Cc1c[nH]cn1)C(=O)N[C@H](CCCCN)C(=O)O | 1.6 | 6
3 | CC[C@@H](C)[C@H](NC(=O)[C@H](C(C)C)[S+]([O-])C[C@H](CC(C)C)NC(=O)[C@H](Cc1c[nH]cn1)NC(=O)[C@H](Cc1ccccc1)NC(=O)[C@H]1CCCN1C(=O)[C@H](Cc1c[nH]cn1)NC(=O)[C@H]1CCCN1)C(=O)N[C@@H](Cc1c[nH]cn1)C(=O)N[C@H](CCCCN)C(=O)O (some centres not stated) | 4 | 2.5
4 | CC[C@@H](C)[C@H](NC(=O)/C=C/[C@H](CC(C)C)NC(=O)[C@H](Cc1cnc[nH]1)NC(=O)[C@H](Cc1ccccc1)NC(=O)[C@H]1CCCN1C(=O)[C@H](Cc1cnc[nH]1)NC(=O)[C@H]1CCCN1)C(=O)N[C@@H](Cc1cnc[nH]1)C(=O)N[C@H](CCCCN)C(=O)O |  | 6.2
5 | CC[C@@H](C)[C@H](NC(=O)[C@@H](NC[C@H](CC(C)C)NC(=O)[C@H](Cc1c[nH]cn1)NC(=O)[C@H](Cc1ccccc1)NC(=O)[C@H]1CCCN1C(=O)[C@H](Cc1c[nH]cn1)NC(=O)[C@H]1CCCN1)C(C)C)C(=O)N[C@@H](Cc1c[nH]cn1)C(=O)N[C@H](CCCCN)C(=O)O | 200 | 0.049

Other lines, results leading:

Row | Relative potency (Renin (Homo sapiens)) | IC50 (Renin) [µM] | Compound
6 | 1 |  | CC(C)[C@H](NC(=O)[C@H](Cc1ccccc1)NC(=O)[C@H](Cc1ccccc1)NC(=O)[C@H](Cc1c[nH]cn1)NC(=O)[C@H](Cc1ccccc1)NC(=O)[C@H]1CCCN1C(=O)[C@H](Cc1c[nH]cn1)NC(=O)[C@H]1CCCN1)C(=O)N[C@@H](Cc1ccc(O)cc1)C(=O)N[C@H](CCCCN)C(=O)O
7 | 0.6 |  | CC[C@@H](C)[C@H](NC(=O)[C@H](Cc1ccccc1)NC(=O)[C@H](Cc1ccccc1)NC(=O)[C@H](Cc1c[nH]cn1)NC(=O)[C@H](Cc1ccccc1)NC(=O)[C@H]1CCCN1C(=O)[C@H](Cc1c[nH]cn1)NC(=O)[C@H]1CCCN1)C(=O)N[C@@H](Cc1c[nH]cn1)C(=O)N[C@H](CCCCN)C(=O)O
8 |  | 170 | CC[C@@H](C)[C@H](NC(=O)[C@H](Cc1ccccc1)NC(=O)[C@H](Cc1ccccc1)NC(=O)[C@H](Cc1cnc[nH]1)NC(=O)[C@H](Cc1ccccc1)NC(=O)[C@H]1CCCN1C(=O)[C@H](Cc1cnc[nH]1)NC(=O)[C@H]1CCCN1)C(=O)N[C@@H](Cc1cnc[nH]1)C(=O)N[C@H](CCCCN)C(=O)O
9 | 1.6 |  | CC[C@@H](C)[C@H](NC(=O)/C=C/[C@H](CC(C)C)NC(=O)[C@H](Cc1c[nH]cn1)NC(=O)[C@H](Cc1ccccc1)NC(=O)[C@H]1CCCN1C(=O)[C@H](Cc1c[nH]cn1)NC(=O)[C@H]1CCCN1)C(=O)N[C@@H](Cc1c[nH]cn1)C(=O)N[C@H](CCCCN)C(=O)O
